According to patent US20210196714A1, “COMPOSITIONS AND METHODS FOR TREATING DISORDERS CHARACTERIZED WITH ABERRANT RAS/MAPK SIGNALING” (Duke University, priority 2018, published 2021):

Columns and labels:
morphant KS embryos = conditions: Bogershausen et al. 2015; cited from earlier work
[1] = test system: zebrafish kmt2d morphants; assay: Rescue of convergent-extension (CE) phenotype in kmt2d morphants; assay type: in vivo

Structure (SMILES) | rescue of CE-driven phenotypes (morphant KS embryos) | amelioration of CE defects over serial dilutions ([1]; 1 nM to 1 μM, 8-10 somite stage) | CE defects at 50 nM and 100 nM doses ([1]; dose response, 50 and 100 nM)
O=C(NOCC1CC1)c1cc(Br)c(F)c(F)c1Nc1ccc(I)cc1Cl [PD184161] | phenocopy this rescue |  | 
CC(C)(C)c1nc(-c2cccc(NS(=O)(=O)c3c(F)cccc3F)c2F)c(-c2ccnc(N)n2)s1 [Dabrafenib, reference compound] |  | did not result in significant amelioration | marginal improvements
